According to paper PMC9719519, “Non-classical ferroptosis inhibition by a small molecule targeting PHB2” (Nature Communications, 2022):

Tests used:
Test in all cases: biochemical
Set-up in all cases: Eurofins recombinant human kinase profiling, remaining kinase activity as % of control, 10 uM ATP
Details in all cases: ATP 10 uM; read-out: %Ctrl@10 μM
PKBγ(h) = target: T1, PKBγ(h) (Homo sapiens, UniProt Q9Y243)
T1 construct: gene AKT3
In short: (§1)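 Recombinant human kinases, 401 in total, screened using an outsourced kinase profiling assay.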

Ron(h) = target: T2, Ron(h) (Homo sapiens, UniProt Q04912)
T2 construct: gene MST1R
In short: as §1

EphA8(h) = EphA8(h) (Homo sapiens, UniProt P29322)
In short: as §1

SAPK2a(T106M)(h) = target: T3, SAPK2a(T106M)(h) (Homo sapiens, UniProt Q16539, T106M)
T3 construct: gene MAPK14
In short: as §1

TSSK3(h) = TSSK3(h) (Homo sapiens, UniProt Q96PN8)
In short: as §1

MEKK2(h) = target: T4, MEKK2(h) (Homo sapiens, UniProt Q9Y2U5)
T4 construct: gene MAP3K2
In short: as §1

PKCβI(h) = target: T5, PKCβI(h) (Homo sapiens, UniProt P05771)
T5 construct: gene PRKCB; isoform beta I
In short: as §1

CK1γ1(h) = target: T6, CK1γ1(h) (Homo sapiens, UniProt Q9HCP0)
T6 construct: gene CSNK1G1
In short: as §1

CHK2(I157T)(h) = target: T7, CHK2(I157T)(h) (Homo sapiens, UniProt O96017, I157T)
T7 construct: gene CHEK2
In short: as §1

DNA-PK(h) = target: T8, DNA-PK(h) (Homo sapiens, UniProt P78527)
T8 construct: gene PRKDC
In short: as §1

TLK1(h) = TLK1(h) (Homo sapiens, UniProt Q9UKI8)
In short: as §1

SRMS(h) = SRMS(h) (Homo sapiens, UniProt Q9H3Y6)
In short: as §1

Ros(h) = target: T9, Ros(h) (Homo sapiens, UniProt P08922)
T9 construct: gene ROS1
In short: as §1

BIKe(h) = target: T10, BIKe(h) (Homo sapiens, UniProt Q9NSY1)
T10 construct: gene BMP2K
In short: as §1

Aurora-C(h) = target: T11, Aurora-C(h) (Homo sapiens, UniProt Q9UQB9)
T11 construct: gene AURKC
In short: as §1

Flt1(h) = Flt1(h) (Homo sapiens, UniProt P17948)
In short: as §1

Haspin(h) = Haspin(h) (Homo sapiens, UniProt Q8TF76)
In short: as §1

Tec(h) activated = Tec(h) activated (Homo sapiens, UniProt P42680)
In short: as §1

CDKL3(h) = CDKL3(h) (Homo sapiens, UniProt Q8IVW4)
In short: as §1

PDGFRα(V561D)(h) = target: T12, PDGFRα(V561D)(h) (Homo sapiens, UniProt P16234, V561D)
T12 construct: gene PDGFRA
In short: as §1

PAK1(h) = PAK1(h) (Homo sapiens, UniProt Q13153)
In short: as §1

NUAK2(h) = NUAK2(h) (Homo sapiens, UniProt Q9H093)
In short: as §1

Sequence of Haspin(h) (Q8TF76 whole entry): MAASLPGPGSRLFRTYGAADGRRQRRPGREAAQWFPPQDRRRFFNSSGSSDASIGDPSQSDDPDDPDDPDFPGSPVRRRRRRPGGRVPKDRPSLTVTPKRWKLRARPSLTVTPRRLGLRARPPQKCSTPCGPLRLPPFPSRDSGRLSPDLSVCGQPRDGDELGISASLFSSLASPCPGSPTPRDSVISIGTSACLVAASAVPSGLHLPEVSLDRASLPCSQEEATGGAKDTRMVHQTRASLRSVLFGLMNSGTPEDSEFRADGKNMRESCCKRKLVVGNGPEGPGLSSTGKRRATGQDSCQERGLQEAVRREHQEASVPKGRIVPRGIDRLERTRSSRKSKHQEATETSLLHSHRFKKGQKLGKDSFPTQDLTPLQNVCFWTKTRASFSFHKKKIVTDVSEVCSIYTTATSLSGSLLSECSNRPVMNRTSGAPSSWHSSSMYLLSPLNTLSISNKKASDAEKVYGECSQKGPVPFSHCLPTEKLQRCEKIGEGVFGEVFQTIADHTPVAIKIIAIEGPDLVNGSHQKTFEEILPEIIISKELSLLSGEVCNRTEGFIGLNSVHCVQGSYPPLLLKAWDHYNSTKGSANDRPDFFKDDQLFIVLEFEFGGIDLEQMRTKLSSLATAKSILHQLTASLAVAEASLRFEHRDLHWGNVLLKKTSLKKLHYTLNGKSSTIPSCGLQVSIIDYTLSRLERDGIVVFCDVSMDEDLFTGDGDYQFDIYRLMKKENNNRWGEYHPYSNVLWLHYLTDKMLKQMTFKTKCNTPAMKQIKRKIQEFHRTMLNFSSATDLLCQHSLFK
Sequence of Tec(h) activated (P42680 whole entry): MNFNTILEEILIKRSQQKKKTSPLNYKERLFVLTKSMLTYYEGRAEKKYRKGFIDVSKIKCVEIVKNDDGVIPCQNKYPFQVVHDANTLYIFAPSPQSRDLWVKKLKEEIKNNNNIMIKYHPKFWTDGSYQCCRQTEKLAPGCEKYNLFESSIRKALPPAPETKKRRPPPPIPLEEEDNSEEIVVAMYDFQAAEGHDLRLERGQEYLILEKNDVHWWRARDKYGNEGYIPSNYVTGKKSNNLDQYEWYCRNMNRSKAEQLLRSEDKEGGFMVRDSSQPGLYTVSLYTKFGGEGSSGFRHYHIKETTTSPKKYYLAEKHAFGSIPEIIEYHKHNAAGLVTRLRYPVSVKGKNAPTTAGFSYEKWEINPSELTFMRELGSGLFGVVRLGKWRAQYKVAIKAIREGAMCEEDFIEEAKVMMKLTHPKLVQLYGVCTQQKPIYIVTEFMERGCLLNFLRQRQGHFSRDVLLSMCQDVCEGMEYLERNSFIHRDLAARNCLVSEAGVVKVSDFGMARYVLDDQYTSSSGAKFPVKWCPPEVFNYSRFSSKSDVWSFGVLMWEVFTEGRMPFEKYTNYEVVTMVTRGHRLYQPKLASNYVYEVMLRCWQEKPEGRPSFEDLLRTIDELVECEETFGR
Sequence of NUAK2(h) (Q9H093 whole entry): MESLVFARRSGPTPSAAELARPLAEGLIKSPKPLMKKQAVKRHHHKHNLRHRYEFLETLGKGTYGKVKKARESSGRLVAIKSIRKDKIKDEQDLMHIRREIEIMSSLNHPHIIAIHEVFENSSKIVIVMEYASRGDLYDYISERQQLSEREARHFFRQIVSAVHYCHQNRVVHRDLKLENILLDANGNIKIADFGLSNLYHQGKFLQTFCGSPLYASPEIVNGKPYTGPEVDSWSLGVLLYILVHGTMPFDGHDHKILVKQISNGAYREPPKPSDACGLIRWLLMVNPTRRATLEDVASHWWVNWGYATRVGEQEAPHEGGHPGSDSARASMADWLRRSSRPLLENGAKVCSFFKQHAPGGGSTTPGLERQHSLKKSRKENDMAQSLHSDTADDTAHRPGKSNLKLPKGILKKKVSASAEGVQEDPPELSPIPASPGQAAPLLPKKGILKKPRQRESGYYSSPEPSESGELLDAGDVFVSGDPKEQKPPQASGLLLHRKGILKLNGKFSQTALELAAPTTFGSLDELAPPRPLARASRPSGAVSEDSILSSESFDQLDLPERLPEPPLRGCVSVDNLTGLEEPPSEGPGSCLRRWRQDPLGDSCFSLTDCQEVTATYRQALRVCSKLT
T7 sequence (O96017 whole entry I157T): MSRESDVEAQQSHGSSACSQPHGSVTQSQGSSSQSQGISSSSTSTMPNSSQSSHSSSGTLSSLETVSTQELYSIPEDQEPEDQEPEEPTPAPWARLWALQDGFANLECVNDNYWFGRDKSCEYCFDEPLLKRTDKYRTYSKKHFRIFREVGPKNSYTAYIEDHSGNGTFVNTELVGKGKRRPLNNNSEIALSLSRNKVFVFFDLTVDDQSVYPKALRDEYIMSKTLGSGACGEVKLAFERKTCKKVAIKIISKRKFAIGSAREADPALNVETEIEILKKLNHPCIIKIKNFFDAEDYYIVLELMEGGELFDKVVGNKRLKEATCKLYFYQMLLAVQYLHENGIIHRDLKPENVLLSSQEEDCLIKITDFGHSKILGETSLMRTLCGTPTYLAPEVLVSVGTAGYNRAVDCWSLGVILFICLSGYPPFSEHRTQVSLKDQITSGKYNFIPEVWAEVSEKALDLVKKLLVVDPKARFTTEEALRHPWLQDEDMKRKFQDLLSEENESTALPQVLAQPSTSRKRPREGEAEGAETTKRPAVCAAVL
T5 sequence (P05771 whole entry, canonical isoform): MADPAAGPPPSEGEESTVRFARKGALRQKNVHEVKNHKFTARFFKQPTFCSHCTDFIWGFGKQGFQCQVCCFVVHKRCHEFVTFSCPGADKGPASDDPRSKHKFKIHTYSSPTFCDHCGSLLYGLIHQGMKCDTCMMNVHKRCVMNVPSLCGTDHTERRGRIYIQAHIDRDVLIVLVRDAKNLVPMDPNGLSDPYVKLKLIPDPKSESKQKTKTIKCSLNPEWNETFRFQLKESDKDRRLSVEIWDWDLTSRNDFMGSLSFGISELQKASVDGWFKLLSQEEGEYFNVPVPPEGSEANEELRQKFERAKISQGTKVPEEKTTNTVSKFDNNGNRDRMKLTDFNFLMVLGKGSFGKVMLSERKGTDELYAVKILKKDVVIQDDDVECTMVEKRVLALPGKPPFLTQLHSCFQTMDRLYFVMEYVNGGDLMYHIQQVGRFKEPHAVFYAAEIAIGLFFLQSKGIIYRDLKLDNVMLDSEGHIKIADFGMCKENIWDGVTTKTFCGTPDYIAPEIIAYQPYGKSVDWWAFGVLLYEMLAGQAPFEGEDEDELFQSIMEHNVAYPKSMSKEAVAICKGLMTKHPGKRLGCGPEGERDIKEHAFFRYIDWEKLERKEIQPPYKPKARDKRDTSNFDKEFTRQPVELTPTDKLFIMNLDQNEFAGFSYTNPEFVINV
Sequence of EphA8(h) (P29322 whole entry): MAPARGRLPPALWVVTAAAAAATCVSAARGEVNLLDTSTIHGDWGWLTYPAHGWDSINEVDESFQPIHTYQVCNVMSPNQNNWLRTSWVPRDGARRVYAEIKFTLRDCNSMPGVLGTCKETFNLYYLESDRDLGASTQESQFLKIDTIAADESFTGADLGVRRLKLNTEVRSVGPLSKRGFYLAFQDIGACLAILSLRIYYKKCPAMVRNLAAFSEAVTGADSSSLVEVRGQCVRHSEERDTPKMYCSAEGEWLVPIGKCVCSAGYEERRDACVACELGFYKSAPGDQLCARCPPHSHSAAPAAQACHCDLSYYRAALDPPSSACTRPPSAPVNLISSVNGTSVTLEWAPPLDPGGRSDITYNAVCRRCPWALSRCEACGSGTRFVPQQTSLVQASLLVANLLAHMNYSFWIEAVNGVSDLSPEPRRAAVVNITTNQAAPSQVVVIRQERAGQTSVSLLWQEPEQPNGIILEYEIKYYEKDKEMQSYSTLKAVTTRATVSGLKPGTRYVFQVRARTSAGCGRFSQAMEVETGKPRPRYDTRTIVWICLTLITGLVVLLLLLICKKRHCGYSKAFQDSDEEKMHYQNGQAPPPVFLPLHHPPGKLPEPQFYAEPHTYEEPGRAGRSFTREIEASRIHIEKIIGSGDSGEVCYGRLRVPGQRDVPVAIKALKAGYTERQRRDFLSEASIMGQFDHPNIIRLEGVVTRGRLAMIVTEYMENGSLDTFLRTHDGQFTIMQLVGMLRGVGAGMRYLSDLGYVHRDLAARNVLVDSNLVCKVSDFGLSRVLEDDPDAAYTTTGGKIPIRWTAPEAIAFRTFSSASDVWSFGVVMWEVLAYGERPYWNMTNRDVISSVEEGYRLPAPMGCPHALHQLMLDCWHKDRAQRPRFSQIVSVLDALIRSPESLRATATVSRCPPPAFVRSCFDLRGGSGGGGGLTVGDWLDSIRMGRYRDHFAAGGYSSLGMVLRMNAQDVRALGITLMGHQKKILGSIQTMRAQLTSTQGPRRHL
T1 sequence (Q9Y243 whole entry): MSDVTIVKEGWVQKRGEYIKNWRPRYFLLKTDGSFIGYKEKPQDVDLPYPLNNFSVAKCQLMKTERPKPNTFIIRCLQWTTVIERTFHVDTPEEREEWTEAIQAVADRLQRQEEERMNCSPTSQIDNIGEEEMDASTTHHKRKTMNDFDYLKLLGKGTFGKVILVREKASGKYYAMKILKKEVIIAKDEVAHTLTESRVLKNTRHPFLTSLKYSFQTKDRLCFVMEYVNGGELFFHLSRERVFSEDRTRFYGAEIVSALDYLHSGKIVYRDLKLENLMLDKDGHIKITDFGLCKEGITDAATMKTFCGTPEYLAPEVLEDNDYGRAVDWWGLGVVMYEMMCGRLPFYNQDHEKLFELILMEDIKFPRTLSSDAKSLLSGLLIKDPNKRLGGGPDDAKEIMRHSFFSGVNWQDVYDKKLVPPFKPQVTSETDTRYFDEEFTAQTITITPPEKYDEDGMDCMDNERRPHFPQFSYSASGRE
Sequence of TSSK3(h) (Q96PN8 whole entry): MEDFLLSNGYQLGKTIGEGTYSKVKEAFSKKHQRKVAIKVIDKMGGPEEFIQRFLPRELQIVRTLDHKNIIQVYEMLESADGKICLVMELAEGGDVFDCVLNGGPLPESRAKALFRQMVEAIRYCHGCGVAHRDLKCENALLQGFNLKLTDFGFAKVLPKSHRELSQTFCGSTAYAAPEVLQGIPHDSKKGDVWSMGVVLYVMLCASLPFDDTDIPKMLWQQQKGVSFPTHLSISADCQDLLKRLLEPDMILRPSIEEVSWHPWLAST

Question: Which remaining activity at 10 µM (PKBγ(h)) does the source give for C1=C(c2nc(-c3cnn(C4CCNCC4)c3)cn3cc(-c4ccccc4)nc23)CCOC1 [YL-939] here?
Answer: 97%

Question: And the remaining activity at 10 µM (Ron(h))?
Answer: 99%

Question: And the remaining activity at 10 µM (EphA8(h))?
Answer: 76%

Question: And the remaining activity at 10 µM (SAPK2a(T106M)(h))?
Answer: 105%

Question: And the remaining activity at 10 µM (TSSK3(h))?
Answer: 87%

Question: And the remaining activity at 10 µM (MEKK2(h))?
Answer: 100%

Question: What about the remaining activity at 10 µM (PKCβI(h)) of the same molecule?
Answer: 98%

Question: What about the remaining activity at 10 µM (CK1γ1(h)) of the same molecule?
Answer: 112%

Question: And the remaining activity at 10 µM (CHK2(I157T)(h))?
Answer: 87%

Question: And the remaining activity at 10 µM (DNA-PK(h))?
Answer: 94%

Question: What about the remaining activity at 10 µM (TLK1(h)) of the same molecule?
Answer: 71%

Question: What about the remaining activity at 10 µM (SRMS(h)) of the same molecule?
Answer: 122%

Question: What about the remaining activity at 10 µM (Ros(h)) of the same molecule?
Answer: 97%

Question: What about the remaining activity at 10 µM (BIKe(h)) of the same molecule?
Answer: 115%

Question: And the remaining activity at 10 µM (Aurora-C(h))?
Answer: 101%

Question: What about the remaining activity at 10 µM (Flt1(h)) of the same molecule?
Answer: 65%

Question: What about the remaining activity at 10 µM (Haspin(h)) of the same molecule?
Answer: 100%

Question: What about the remaining activity at 10 µM (Tec(h) activated) of the same molecule?
Answer: 70%

Question: What about the remaining activity at 10 µM (CDKL3(h)) of the same molecule?
Answer: 82%

Question: And the remaining activity at 10 µM (PDGFRα(V561D)(h))?
Answer: 101%

Question: What about the remaining activity at 10 µM (PAK1(h)) of the same molecule?
Answer: 85%

Question: What about the remaining activity at 10 µM (NUAK2(h)) of the same molecule?
Answer: 72%
